Reference: ChEMBL document CHEMBL1201862, “PubChem BioAssay data set” (2004)
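These data come from cells grown in 96-well plates and exposed to compound for 48 hours at five concentrations. GI50 marks 50% less growth.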 Calls of active or inactive are those of the source. No stated cut-off is given here; in the data, active = GI50 up to about 1.1 µM and inactive = higher.

Columns and labels:
Test in all cases: growth of human tumour cells (NCI), 48 h
A498 = test system: A498
A549 = test system: A549
EKVX = test system: EKVX
HOP-92 = test system: HOP-92
KM12 = test system: KM12
LOX IMVI = test system: LOX IMVI
NCI-H23 = test system: NCI-H23
OVCAR-3 = test system: OVCAR-3
OVCAR-4 = test system: OVCAR-4
OVCAR-5 = test system: OVCAR-5
OVCAR-8 = test system: OVCAR-8
RXF 393 = test system: RXF 393
SK-MEL-28 = test system: SK-MEL-28
SK-MEL-2 = test system: SK-MEL-2
SNB-75 = test system: SNB-75
SR = test system: SR
TK-10 = test system: TK-10
U-251 = test system: U-251
UACC-257 = test system: UACC-257
UO-31 = test system: UO-31

Measured: GI50

NC(Cc1ccc(OCc2ccccc2)cc1)C(=O)NC(Cc1ccccc1)C(=O)Oc1c(Cl)c(Cl)c(Cl)c(Cl)c1Cl (stereo unspecified)
inactive: A498 20.9 µM | A549 18.4 µM | EKVX 17.7 µM | HOP-92 11.9 µM | KM12 15.4 µM | LOX IMVI 14 µM | NCI-H23 16.8 µM | OVCAR-3 15.5 µM | OVCAR-4 17.4 µM | OVCAR-5 15.6 µM | OVCAR-8 16.5 µM | RXF 393 15 µM | SK-MEL-28 16.5 µM | SK-MEL-2 13.3 µM | SNB-75 15.7 µM | SR 54.1 µM | TK-10 15.3 µM | U-251 17.1 µM | UACC-257 15.9 µM | UO-31 16.4 µM

Nc1nc(Cl)nc2c1ncn2C1CCC(CO)O1 (stereo unspecified)
inactive: A498 > 100 µM | HOP-92 > 100 µM | KM12 > 100 µM | LOX IMVI > 100 µM | NCI-H23 87.9 µM | OVCAR-3 > 100 µM | OVCAR-4 > 100 µM | OVCAR-5 > 100 µM | OVCAR-8 41.6 µM | RXF 393 > 100 µM | SK-MEL-28 > 100 µM | SK-MEL-2 > 100 µM | SNB-75 > 100 µM | SR > 100 µM | TK-10 > 100 µM | U-251 > 100 µM | UACC-257 > 100 µM | UO-31 > 100 µM

COc1cc2c(cc1OC)CCN=C2
inactive: A498 > 100 µM | HOP-92 > 100 µM | KM12 > 100 µM | LOX IMVI > 100 µM | NCI-H23 > 100 µM | OVCAR-3 > 100 µM | OVCAR-4 > 100 µM | OVCAR-5 > 100 µM | OVCAR-8 > 100 µM | RXF 393 56.6 µM | SK-MEL-28 > 100 µM | SK-MEL-2 > 100 µM | SNB-75 > 100 µM | SR > 100 µM | TK-10 > 100 µM | U-251 > 100 µM | UACC-257 > 100 µM | UO-31 > 100 µM

Cc1cccc(C(C)C)c1NC(=O)CC1Sc2ccccc2NC1=O (stereo unspecified)
inactive: A498 72.4 µM | A549 87.3 µM | EKVX > 100 µM | HOP-92 37.8 µM | KM12 > 100 µM | LOX IMVI 94.4 µM | NCI-H23 > 100 µM | OVCAR-3 > 100 µM | OVCAR-4 > 100 µM | OVCAR-5 > 100 µM | OVCAR-8 > 100 µM | RXF 393 87.3 µM | SK-MEL-28 83.6 µM | SK-MEL-2 42.5 µM | SNB-75 60.3 µM | SR 41 µM | TK-10 > 100 µM | U-251 > 100 µM | UACC-257 > 100 µM | UO-31 74.5 µM
